Source: patent US20210379153A1, “COMBINATION THERAPIES COMPRISING SIRP ALPHA-BASED CHIMERIC PROTEINS” (Shattuck Labs, Inc., priority 2018, published 2021)
“Also recorded” adds a separate entry of the source.

What was measured:
[1] = test system: WEHI3 tumors; assay: WEHI3 tumor model; type: in vivo, BALB/C mice
Procedure: FIG. 20C: a similar CT26 experiment was initiated as described in FIG. 20A above, however mice were pre-treated on days −1, 1, and 10 with IP injections of 100 μg of either or both CD4/CD8 depleting antibodies. Mice were inoculated with CT26 tumors on day 0 and treated at a later starting date than FIG. 20A with mSIRPα-Fc-CD40L ARC on days 7, 9, and 11. […] In FIG. 20D and FIG. 20E, BALB/C mice were inoculated with WEHI3 tumors (FIG. 20D) or A20 tumors (FIG. 20E) subcutaneously on the rear flank, and then treated via IP injection with anti-CD20 or mSIRPα-Fc-CD40L on days 7, 9, and 11 (WEHI3) or days 10, 12, and 14 (A20); when tumors were established and reached approximately 57-60 mm^3. A cohort of mice were pre-treated with an interferon alpha receptor 1 (IFNAR1) blocking antibody ([…] by IP injection) on days −1, 1, and 10 (WEHI3) or on days −1, 1, and 13 (A20). FIG. 20F to FIG. 20H are graphs showing blockade of CD4, CD8, and IFNAR1. Peripheral blood analysis by flow cytometry of CD4 (FIG. 20F), CD8 (FIG. 20G), and IFNAR1 (FIG. 20H) depletion following depleting antibody treatment corresponding to FIG. 20C to FIG. 20E. Samples were normalized to untreated animals.
In a second set of experiments, a combination of an anti-IFNAR-1 antibody and the anti-CD20 antibody, the SIRPα(CD172a)-Fc-CD40L chimeric protein in combination with the anti-IFNAR-1 antibody, and a triple combination of the SIRPα(CD172a)-Fc-CD40L chimeric protein, the anti-IFNAR-1 antibody, and the anti-CD20 antibody were tested. […] The depletion of IFNAR1+ cells was confirmed at multiple time points in the peripheral blood by flow cytometry (FIG. 20H).

[2] = test system: HCC1954 (high Her2-expressing breast cancer cell line); assay: Macrophage engulfment of HCC1954 cells; type: cell-based, human; settings: combination with anti-Her2 antibody (trastuzumab); vs low Her2-expressing tumor cells
[3] = test system: tumors; assay: In vivo tumor model, SIRPα-Fc-OX40L with checkpoint antibodies (Example 14); parameters: species or system mice
Procedure: The in vivo ability of combinations of the SIRPα-Fc-OX40L chimeric protein with anti-CTLA-4 antibodies or the SIRPα-Fc-OX40L chimeric protein with anti-PD-1 antibodies to target and treat tumors was determined.

[4] = test system: Raji cells; assay: In vitro phagocytosis of Raji cells by human macrophages; type: cell-based
Description: To this end, in vitro tumor cell phagocytosis assays were established to determine whether SIRPα-Fc-CD40L enhanced macrophage-mediated phagocytosis of various tumor cell lines both alone and in combination with anti-CD20 antibodies.
Initially, a variety of CD20+ lymphoma (Toledo, Raji, and Ramos) cell lines were co-cultured with human monocyte-derived macrophages to assay the amount of phagocytosis promoted by the SIRPα(CD172a)-Fc-CD40L chimeric protein in the presence or absence of an anti-CD20 antibody.
Such synergistic effect was unexpected.
These experiments used an in vitro phagocytosis assay with human donor macrophages and several human tumor cell lines (e.g., Raji cells, a human Burkitt lymphoma tumor cell line), to test whether SIRPα-Fc-CD40L's blockade of the tumor cell antigen CD47 (“don't eat me signal”) could stimulate phagocytosis, and potentially synergize with the anti-CD20 antibody, Rituximab. FIG. 10A is a cartoon illustrating steps used in this assay.
Co-cultures of tagged Raji cells and macrophages were treated with a variety of chimeric protein and antibody combinations, including control IgGs with an anti-CD20 antibody (Rituximab), an anti-CD47 antibody (CC9, Celgene), the SIRPα(CD172a)-Fc-CD40L chimeric protein, and/or pembrolizumab (an anti-PD-1 antibody; […]/MK 3475, Merck). […] Such synergistic effect was unexpected.

[5] = test system: A431 (high EGFR-expressing skin cancer cell line); assay: Macrophage engulfment of A431 cells; type: cell-based, human; settings: combination with anti-EGFR antibody (cetuximab); vs low EGFR-expressing tumor cells
[6] = test system: IRF-inducible ISG reporter in RAW264.7 cells; assay: RAW264.7-ISG interferon reporter cells co-cultured with A20 lymphoma cells; type: cell-based, mouse; settings: monotherapy; 50 mg/mL proteins, 1 mg/mL anti-mCD20; 24 hours
Procedure: FIG. 8D: Macrophage:Toledo lymphoma co-cultures were harvested 2 hours into phagocytosis assays in the presence of rituximab ([…]), SIRPα-Fc-CD40L ([…]), or the combination of both agents. Macrophages were isolated by CD11b+ FACS, RNA was prepared, cDNA synthesized, and gene expression (IFNa1, IFNb1, CD80, and CD86) assessed by qRT-PCR. Fold change was calculated using DDCT and values obtained from the housekeeping gene ACTB, and the corresponding values from untreated samples. […] After 2 hours, co-cultures were isolated from tissue culture vessels and were stained with a fluorescently conjugated CD11b antibody to discriminate macrophages. Cells were then assessed by flow cytometry for the co-localization of fluorescent signal from both cells types. […] After 24-hours type I interferon induced luminescence was assessed using a luminometer. The maximum luminescence (RLU) from each experiment was set to 1, and all other samples were normalized accordingly. […]
Additionally, a macrophage reporter system was used to detect activation. […] After 24 hours, culture supernatant was collected and assessed for luciferase activity, which would indicate activation of a type I interferon response in the RAW-ISG reporter cells. […]

[7] = combination with anti-CTLA-4 antibody
[8] = combination with anti-PD-1 antibody

SIRPα-Fc-CD40L: generic name of the SIRPαECD-Fc-CD40LECD chimeric protein; human or murine version according to the experiment
tumor size ([1]; combination with anti-CD20 antibody): reduced tumor size greater than either component alone
tumor reduction ([1]; combination with anti-IFNAR-1 antibody vs chimeric protein alone): less tumor reduction
tumor reduction ([1]; triple combination with anti-CD20 and anti-IFNAR-1 antibodies vs chimeric protein plus anti-CD20): less tumor reduction
macrophage engulfment of tumor cells [2]: more effective
rejection of primary tumor ([3]; combination of chimeric protein and antibody): able to reject primary tumor
survival [3, 7]: any survivors by the sixteenth day
tumor size [3, 7]: effective in reducing tumor size
survival [3, 8]: any survivors by the sixteenth day
tumor size [3, 8]: effective in reducing tumor size
synergy in phagocytosis with anti-CD20 antibody ([4]; Fc receptors on the macrophages pre-blocked): synergy was lost
phagocytosis activity by flow cytometry ([4]; combination with an anti-CD20 antibody, among treatment groups): greatest phagocytosis activity
macrophage engulfment (phagocytosis) of tumor cells ([4]; combination with anti-CD20 antibody (Rituximab), listed as SIRPα(CD172a)-Fc-CD40L): most effective; also recorded: effective
rate of tumor cells engulfed by macrophages (phagocytosis index) ([4]; combination with anti-CD20 antibody vs chimeric protein-alone and antibody-alone treatments): greater than the sum
stimulation of phagocytosis ([4]; combination with anti-CD20 antibody, CD40 pre-blocked): remained the same
macrophage engulfment of tumor cells [5]: more effective
interferon gene-driven luciferase activity (type I IFN response) [6]: stimulates an increase in interferon gene-driven luciferase activity
